In patent publication US20170312334A1, “METHODS AND COMPOSITIONS FOR TREATING INFLAMMATORY DISORDERS” (ROGNE BIOSCIENCE INC., priority 2014, published 2017):

How the values were obtained:
[1] = test system: NF-κB; assay: NF-κB activation assay: camptothecin induced NF-κB nuclear binding; type: cell-based; details: camptothecin 10 μM to 10 nM
Protocol: Treatment of the nuclear extract with the p65 antibody results in a significant decrease in NF-κB/DNA binding. As a negative control, cells are left inactivated and nuclear extracts are treated with the NF-κB consensus sequence, illustrating only a slight background level of NT-κB.
Inhibition of camptothecin mediated activation of NF-κB by the agents disclosed herein is as follows: Induction of NF-κB activation can proceed via a wide range of signaling pathways (Delhase et al., Science 284: 309-313 (1999); Karin, Oncogene 18: 6867-6874 (1999)). Inhibition of NF-κB activation can proceed via the inhibition of many different pathways (Epinat and Gilmore, Oncogene 18: 6896-6909 (1999)). […]
Human Jurkat leukemia T-cells (clone E6-1; Amer. Type Culture Collection, Rockville, Md.) are grown in RPMI-1640 Media (Gibco-BRL, Rockville, Md.) supplemented with 10% fetal bovine serum, penicillin (614 ng/mL), streptomycin (10 μg/mL) and HEPES buffer, pH 7.2 at 37° C., 5% CO2. […] The protein concentration of the extracts is determined according to the Method of Bradford (1976) with BioRad reagents. […] After electrophoresis the gel is analyzed using a phosphorimager (Biorad FX plus) for detection of the NF-κB-DNA binding.

[2] = test system: imiquimod-induced dermal inflammation; assay: Imiquimod-induced psoriasis-like skin inflammation model in mice; details: topically applied, in vivo, mice (FIG. 15)
Protocol: Psoriasis is induced by imiquimod applied to the back and ears of the test animals. The initial signs of the disease are observed within 5-6 days as redness and the appearance of plaque type psoriasis, and the disease progresses onto the entire back of the animal.
The study is carried out on female BALC/c mice, 9-10 weeks old at study initiation. […] The animals are divided into group 1 (naïve), group 2 (vehicle+IMQ), group 3 (C15 peptide test agent+IMQ) and group 4 (C15 peptide test agent+IMQ).
The animals are examined for signs of psoriasis on study day 1. These scores served as a baseline for the psoriasis clinical score parameter. Starting from IMQ cream application on day 1, psoriasis responses are examined from day 5 until termination of the study.
Psoriasis reactions (erythema and plaques) are scored and recorded. For plaques, a scale of 0-7 is used with 0 being normal and 7 being no fur with small red dots covering 50%-100% of the back. For erythema, a scale of 0-4 is used with 0 being normal and 4 being very marked. The clinical score is determined by summing the score of each section. The final psoriasis score is the sum of the erythema score and the plaques score.
Right ear thickness is measured before psoriasis induction on study day 1 (baseline). […] Right ear thickness is then measured on study days 5, 8 and 10 (study termination). […]

[3] = test system: NF-κB; assay: Modulation of NF-κB activity compared with steroid (FIG. 17); type: cell-based; details: FIG. 17A/17B
[4] = test system: NF-κB-regulated cytokines; assay: Secretion of NF-κB-regulated cytokines by mouse macrophages (FIG. 18B); type: cell-based
[5] = test system: RANTES; assay: Newly synthesized RANTES in human macrophages (FIG. 18C); type: cell-based
[6] = test system: TNFα; assay: Inhibition of LPS/IFNγ-induced cytokine expression (TNFα); type: cell-based
[7] = test system: RANTES; assay: Inhibition of LPS/IFNγ-induced cytokine expression (RANTES); type: cell-based

CC[C@@]1(O)C(=O)OCc2c1cc1n(c2=O)Cc2cc3ccccc3nc2-1 [camptothecin]
NF-κB/DNA binding due to NF-κB activation [1]: significant amount of NF-κB/DNA binding

AGEDPHSFYFPGQFA (listed as Homo sapiens) [human C15 peptide]
imiquimod-induced dermal inflammation [2]: reduces imiquimod-induced dermal inflammation in vivo in a dose dependent manner | NF-κB activity modulation relative to steroid [3]: modulates NF-κB activity more potently than steroid | secretion of NF-κB-regulated cytokines [4]: reduced | reduction of newly synthesized RANTES ([5]; human macrophages (FIG. 18C)): > 90% | potency relative to steroid (Dex) ([5]; human macrophages, RANTES (FIG. 18C)): 10^6 time

NNNNNNNNNN
Percent Inhibition of LPS/IFNγ-induced Cytokine Expression [6]: 1% | Percent Inhibition of LPS/IFNγ-induced Cytokine Expression [7]: 0%
